These results are taken from patent US20150292026A1, “METHYLATION MARKERS PREDICTIVE FOR DRUG RESPONSE” (MDxHEALTH SA, priority 2012, published 2015).

Like-named read-outs stand apart in the source and are kept apart here.

In assay [1] the test system is HCT116 cells. The experiment in a line: Re-expression of DCR1 (qRT-PCR) in HCT116 after inhibition of DNA methyltransferases. It is filed as cell-based, Human. The following applies: HCT116 (65% methylated for DCR1), 5000 nM for 3 days, p=0.005. (In general: In qPCR the cycle at which signal appears reflects the starting amount.)
Procedure: To investigate re-expression of DCR1 after inhibition of DNA metyltransferases, HCT116 cells were treated with 5000 nM 5-aza-2′-deoxycytidine for 3 days (DAC, Sigma Chemical Co., St. Louis. Mo., USA).
Total RNA was isolated using TriZoI reagent (Invitrogen, Breda, The Netherlands), and subjected to purification using RNeasy Mini Kit (Qiagen). After DNAse treatment (RQI DNAse, Promega, Leiden, The Netherlands). cDNA was made with the Iscript cDNA Synthesis Kit (BioRad, Veenendaal, The Netherlands). Quantitative RT-PCR was done using TaqMan® Gene Expression Assays from Applied Biosystems directed to DCR1 (Hs00182570_m1) and B2M (Hs00984230_m1). Relative expression levels were determined by calculating the Ct-ratio (Ct ratio=2̂−(Ct DCR1−Ct B2M)).
Student's T-test was used for comparison of DCR1 expression levels before and after DAC and TSA treatment of HCT116.
Assay [2] has as its system patients with metastatic CRC. As to conditions: first-line therapy, discovery set; for HR (methylated vs unmethylated): PFS.
Assay [3] concerns patients with metastatic CRC. The experiment in a line: CAIRO arm A: response to single agent irinotecan in second line by DCR1 methylation. It is filed as in vivo, human. The following applies: 65 patients from arm A, data not shown.
Assay [4] concerns patients with CRC (CAIROII). As to conditions: CAIRO II patients, estimate from literature; cited from earlier work.

As to `Nc1ncn([C@H]2C[C@H](O)[C@@H](CO)O2)c(=O)n1` [5-aza-2′-deoxycytidine], the “DCR1 expression (qRT-PCR) after treatment” value in assay [1] is reported as “significant increased DCR1 expression”.

`CCCCCOC(=O)Nc1nc(=O)n([C@@H]2O[C@H](C)[C@@H](O)[C@H]2O)cc1F` [Capecitabine]: the “HR (methylated vs unmethylated)” value in assay [2] (BK methylation) stood at 1.1; in assay [2] (CAT methylation), 0.9; in assay [2] (CCND2 methylation), 1.3; in assay [2] (CDK5 methylation), 0.7; in assay [2] (DAPK1 methylation), 1.0; in assay [2] (DCR1 methylation) it was 1.4. Further, the “HR (methylated vs unmethylated)” value in assay [2] (EEF1A2 (1 assay methylation)) stood at 1.2; in assay [2] (EEF1A2 (2 assay methylation)), 1.3; in assay [2] (HOXA9 methylation) it was 0.8; in assay [2] (IRAK1 methylation) it was 1.6; in assay [2] (LIG4 methylation), 1.2; in assay [2] (NUDT1 methylation), 1.5. The “HR (methylated vs unmethylated)” value in assay [2] (PAX3 (1) assay methylation) amounted to 1.2; in assay [2] (PAX3 (2) assay methylation), 1.3; in assay [2] (PRKCB1 methylation), 1.1; in assay [2] (PROK2 methylation), 0.8; in assay [2] (PROP1 methylation) it was 2.0; in assay [2] (PTGS2 methylation), 1.1. Moreover, the “HR (methylated vs unmethylated)” value in assay [2] (RASSF1 methylation) was 1.2; in assay [2] (RBBP8 methylation), 0.9; in assay [2] (RHOB methylation), 0.7; in assay [2] (SPO11 methylation) it was 1.4; in assay [2] (TBX5 methylation) it was 2.3; in assay [2] (TIPARP methylation), 0.9. The “Median PFS” value was determined as 149 days in assay [2] (BK methylated (M) tumours); 188 days in assay [2] (BK unmethylated (U) tumours); 116 days in assay [2] (CAT methylated (M) tumours); 190 days in assay [2] (CAT unmethylated (U) tumours); 202 days in assay [2] (CCND2 methylated (M) tumours); 156 days in assay [2] (CCND2 unmethylated (U) tumours). Besides, the “Median PFS” value amounted to 125 days in assay [2] (CDK5 methylated (M) tumours); 191 days in assay [2] (CDK5 unmethylated (U) tumours); 144 days in assay [2] (DAPK1 methylated (M) tumours); 188 days in assay [2] (DAPK1 unmethylated (U) tumours); 184 days in assay [2] (DCR1 methylated (M) tumours); 178 days in assay [2] (DCR1 unmethylated (U) tumours). In addition, the “Median PFS” value in assay [2] (EEF1A2 (1 assay methylated (M) tumours)) amounted to 202 days; in assay [2] (EEF1A2 (1 assay unmethylated (U) tumours)), 168 days; in assay [2] (EEF1A2 (2 assay methylated (M) tumours)), 246 days; in assay [2] (EEF1A2 (2 assay unmethylated (U) tumours)), 177 days; in assay [2] (HOXA9 methylated (M) tumours), 168 days; in assay [2] (HOXA9 unmethylated (U) tumours), 191 days. The “Median PFS” value is 216 days in assay [2] (IRAK1 methylated (M) tumours); 130 days in assay [2] (IRAK1 unmethylated (U) tumours); 173 days in assay [2] (LIG4 methylated (M) tumours); 190 days in assay [2] (LIG4 unmethylated (U) tumours); 187 days in assay [2] (NUDT1 methylated (M) tumours); 99 days in assay [2] (NUDT1 unmethylated (U) tumours). For the same compound, the “Median PFS” value in assay [2] (PAX3 (1) assay methylated (M) tumours) came to 189 days; in assay [2] (PAX3 (1) assay unmethylated (U) tumours), 126 days; in assay [2] (PAX3 (2) assay methylated (M) tumours), 187 days; in assay [2] (PAX3 (2) assay unmethylated (U) tumours) it was 127 days; in assay [2] (PRKCB1 methylated (M) tumours), 192 days; in assay [2] (PRKCB1 unmethylated (U) tumours), 168 days. The “Median PFS” value is 182 days in assay [2] (PROK2 methylated (M) tumours); 179 days in assay [2] (PROK2 unmethylated (U) tumours); 188 days in assay [2] (PROP1 methylated (M) tumours); 99 days in assay [2] (PROP1 unmethylated (U) tumours); 202 days in assay [2] (PTGS2 methylated (M) tumours); 168 days in assay [2] (PTGS2 unmethylated (U) tumours). In addition, the “Median PFS” value worked out at 209 days in assay [2] (RASSF1 methylated (M) tumours); 164 days in assay [2] (RASSF1 unmethylated (U) tumours); 191 days in assay [2] (RBBP8 methylated (M) tumours); 177 days in assay [2] (RBBP8 unmethylated (U) tumours); 112 days in assay [2] (RHOB methylated (M) tumours); 188 days in assay [2] (RHOB unmethylated (U) tumours). Further, the “Median PFS” value was determined as 177 days in assay [2] (SPO11 methylated (M) tumours); 190 days in assay [2] (SPO11 unmethylated (U) tumours); 188 days in assay [2] (TBX5 methylated (M) tumours); 65 days in assay [2] (TBX5 unmethylated (U) tumours); 177 days in assay [2] (TIPARP methylated (M) tumours); 187 days in assay [2] (TIPARP unmethylated (U) tumours).

As to `CCc1c2c(nc3ccc(OC(=O)N4CCC(N5CCCCC5)CC4)cc13)-c1cc3c(c(=O)n1C2)COC(=O)[C@]3(O)CC` [irinotecan, Irinotecan], the “association of DCR1 methylation with response to single agent second-line therapy” value in assay [3] is listed as “a similar trend was observed, although not statistically significant”.

As for “bevacuzimab: targeted therapy directed against VEGF”, the “survival benefit from bevacizumab” value in assay [4] is “about two”.
